Source: US7015215B2, “Pyrrolo[2,1-c][1,4] benzodiazepines compounds and process thereof” (Council of Scientific and Industrial Research, priority 2003, dated 2006)

Key:
Type in all cases: cell-based, human
U251 = experiment: NCI SRB cytotoxicity, CNS U251; settings: 48 h
Protocol: (§1) Biological Activity: In vitro biological activity studies were carried out at National Cancer Institute (U.S.A.).
(§2) For each compound, dose response curves for each cell line were measured at a minimum of five concentrations at 10 fold dilutions. A protocol of 48 h continuous drug exposure was used, and a sulforhodamine B (SRB) protein assay was used to estimate cell viability or growth. The concentration causing 50% cell growth inhibition (GI50), total cell growth inhibition (TGI, 0% growth) and 50% cell death (LC50, −50% growth) compared with the control was calculated.

HOP-62 = experiment: NCI SRB cytotoxicity, Non-small-cell lung HOP-62; settings: HOP-62, Non-small-cell lung, 48 h
HS578T = experiment: NCI SRB cytotoxicity, Breast HS578T; settings: 48 h
Protocol: as §1, §2

MDA-MB-435 = experiment: NCI SRB cytotoxicity, Breast MDA-MB-435; settings: MDA-MB-435, Breast, 48 h
Protocol: as §1, §2

UACC-257 = experiment: NCI SRB cytotoxicity, Melanoma UACC-257; settings: UACC-257, Melanoma, 48 h
OVCAR-4 = experiment: NCI SRB cytotoxicity, Ovarian OVCAR-4; settings: OVCAR-4, Ovarian, 48 h
SNB-75 = experiment: NCI SRB cytotoxicity, CNS SNB-75; settings: SNB-75, CNS, 48 h
Protocol: as §1, §2

NCI-H226 = experiment: NCI SRB cytotoxicity, Non-small-cell lung NCI-H226; settings: 48 h
Protocol: as §1, §2

SK-MEL-5 = experiment: NCI SRB cytotoxicity, Melanoma SK-MEL-5; settings: SK-MEL-5, Melanoma, 48 h
Protocol: as §1, §2

HCT-15 = experiment: NCI SRB cytotoxicity, Colon HCT-15; settings: HCT-15, Colon, 48 h
Protocol: as §1, §2

MDA-MB-231/ATCC = experiment: NCI SRB cytotoxicity, Breast MDA-MB-231/ATCC; settings: 48 h
Protocol: as §1, §2

NCI-H522 = experiment: NCI SRB cytotoxicity, Non-small-cell lung NCI-H522; settings: 48 h
Protocol: as §1, §2

PC-3 = experiment: NCI SRB cytotoxicity, Prostate PC-3; settings: PC-3, Prostate, 48 h
Protocol: as §2

SK-MEL-28 = experiment: NCI SRB cytotoxicity, Melanoma SK-MEL-28; settings: SK-MEL-28, Melanoma, 48 h
Protocol: as §1, §2

M14 = experiment: NCI SRB cytotoxicity, Melanoma M14; settings: 48 h
Protocol: as §1, §2

COLO 205 = experiment: NCI SRB cytotoxicity, Colon COLO 205; settings: COLO 205, Colon, 48 h
Protocol: as §1, §2

TK-10 = experiment: NCI SRB cytotoxicity, Renal TK-10; settings: TK-10, Renal, 48 h
A498 = experiment: NCI SRB cytotoxicity, Renal A498; settings: 48 h
Protocol: as §1, §2

NCI-H460 = experiment: NCI SRB cytotoxicity, Non-small-cell lung NCI-H460; settings: 48 h
Protocol: as §1, §2

DU-145 = experiment: NCI SRB cytotoxicity, Prostate DU-145; settings: DU-145, Prostate, 48 h
Protocol: as §2

NCI/ADR-RES = experiment: NCI SRB cytotoxicity, Breast NCI/ADR-RES; settings: 48 h
Protocol: as §1, §2

OVCAR-5 = experiment: NCI SRB cytotoxicity, Ovarian OVCAR-5; settings: OVCAR-5, Ovarian, 48 h
Protocol: as §1, §2

MALME-3M = experiment: NCI SRB cytotoxicity, Melanoma MALME-3M; settings: 48 h
Protocol: as §1, §2

BT-549 = experiment: NCI SRB cytotoxicity, Breast BT-549; settings: BT-549, Breast, 48 h
Protocol: as §1, §2

ACHN = experiment: NCI SRB cytotoxicity, Renal ACHN; settings: 48 h
IGROVI = experiment: NCI SRB cytotoxicity, Ovarian IGROVI; settings: 48 h
HT-29 = experiment: NCI SRB cytotoxicity, Colon HT-29; settings: HT-29, Colon, 48 h
NCI-H23 = experiment: NCI SRB cytotoxicity, Non-small-cell lung NCI-H23; settings: 48 h
Protocol: as §1, §2

EKVX = experiment: NCI SRB cytotoxicity, Non-small-cell lung EKVX; settings: 48 h
Protocol: as §1, §2

T-47D = experiment: NCI SRB cytotoxicity, Breast T-47D; settings: 48 h
Protocol: as §1, §2

A549/ATCC = experiment: NCI SRB cytotoxicity, Non-small-cell lung A549/ATCC; settings: 48 h
Protocol: as §1, §2

SR = experiment: NCI SRB cytotoxicity, Leukemia SR; settings: 48 h
Protocol: as §1, §2

MOLT-4 = experiment: NCI SRB cytotoxicity, Leukemia MOLT-4; settings: MOLT-4, Leukemia, 48 h
Protocol: as §1, §2

NCI-H322 = experiment: NCI SRB cytotoxicity, Non-small-cell lung NCI-H322; settings: 48 h
Protocol: as §1, §2

SF-268 = experiment: NCI SRB cytotoxicity, CNS SF-268; settings: SF-268, CNS, 48 h
KM-12 = experiment: NCI SRB cytotoxicity, Colon KM-12; settings: KM-12, Colon, 48 h
OVCAR-8 = experiment: NCI SRB cytotoxicity, Ovarian OVCAR-8; settings: OVCAR-8, Ovarian, 48 h
RXF 393 = experiment: NCI SRB cytotoxicity, Renal RXF 393; settings: RXF 393, Renal, 48 h
Protocol: as §2

COc1cc2c(cc1OCCN1CCN(CCOc3cc4c(cc3OC)C(=O)N3CCC[C@H]3C=N4)CC1)N=C[C@@H]1CCCN1C2=O [Compound VIa, 1,1′-{[(bisethane-1,N-diyl)piperazine]dioxy}bis[(11aS)-7-methoxy-1,2,3,11a-tetrahydro-5H-pyrrolo[2,1-c][1,4]benzodiazepin-5-one]]
Log GI 50 (U251): −4.87 mol/L | Log LC 50 (U251): −4.00 mol/L | Log GI 50 (HOP-62): −4.46 mol/L | Log LC 50 (HOP-62): −4.00 mol/L | Log GI 50 (HS578T): −4.34 mol/L | Log LC 50 (HS578T): −4.00 mol/L | Log GI 50 (MDA-MB-435): −4.71 mol/L | Log LC 50 (MDA-MB-435): −4.08 mol/L | Log GI 50 (UACC-257): −4.49 mol/L | Log LC 50 (UACC-257): −4.00 mol/L | Log GI 50 (OVCAR-4): −4.00 mol/L | Log LC 50 (OVCAR-4): −4.00 mol/L | Log GI 50 (SNB-75): −4.23 mol/L | Log LC 50 (SNB-75): −4.00 mol/L | Log GI 50 (NCI-H226): −4.80 mol/L | Log LC 50 (NCI-H226): −4.00 mol/L | Log GI 50 (SK-MEL-5): −4.75 mol/L | Log LC 50 (SK-MEL-5): −4.00 mol/L | Log GI 50 (HCT-15): −4.39 mol/L | Log LC 50 (HCT-15): −4.00 mol/L | Log GI 50 (MDA-MB-231/ATCC): −4.67 mol/L | Log LC 50 (MDA-MB-231/ATCC): −4.00 mol/L | Log GI 50 (NCI-H522): −4.94 mol/L | Log LC 50 (NCI-H522): −4.00 mol/L | Log GI 50 (PC-3): −4.44 mol/L | Log LC 50 (PC-3): −4.00 mol/L | Log GI 50 (SK-MEL-28): −4.22 mol/L | Log LC 50 (SK-MEL-28): −4.00 mol/L | Log GI 50 (M14): −4.61 mol/L | Log GI 50 (COLO 205): −4.66 mol/L | Log LC 50 (COLO 205): −4.00 mol/L | Log GI 50 (TK-10): −4.63 mol/L | Log LC 50 (TK-10): −4.00 mol/L | Log GI 50 (A498): −4.29 mol/L | Log LC 50 (A498): −4.00 mol/L | Log GI 50 (NCI-H460): −4.95 mol/L | Log LC 50 (NCI-H460): −4.00 mol/L | Log GI 50 (DU-145): −4.36 mol/L | Log LC 50 (DU-145): −4.00 mol/L | Log GI 50 (NCI/ADR-RES): −4.00 mol/L | Log LC 50 (NCI/ADR-RES): −4.00 mol/L | Log GI 50 (OVCAR-5): −4.65 mol/L | Log LC 50 (OVCAR-5): −4.00 mol/L | Log GI 50 (MALME-3M): −5.46 mol/L | Log LC 50 (MALME-3M): −4.17 mol/L | Log GI 50 (BT-549): −4.56 mol/L | Log LC 50 (BT-549): −4.00 mol/L | Log GI 50 (ACHN): −4.82 mol/L | Log LC 50 (ACHN): −4.00 mol/L | Log GI 50 (IGROVI): −4.21 mol/L | Log LC 50 (IGROVI): −4.00 mol/L | Log GI 50 (HT-29): −4.58 mol/L | Log LC 50 (HT-29): −4.00 mol/L | Log GI 50 (NCI-H23): −4.76 mol/L | Log LC 50 (NCI-H23): −4.00 mol/L | Log GI 50 (EKVX): −4.00 mol/L | Log LC 50 (EKVX): −4.00 mol/L | Log GI 50 (T-47D): −4.57 mol/L | Log LC 50 (T-47D): −4.00 mol/L | Log GI 50 (A549/ATCC): −4.10 mol/L | Log LC 50 (A549/ATCC): −4.00 mol/L | Log GI 50 (SR): −6.68 mol/L | Log LC 50 (SR): −5.21 mol/L | Log GI 50 (MOLT-4): −5.68 mol/L | Log LC 50 (MOLT-4): −4.10 mol/L | Log GI 50 (NCI-H322): −4.51 mol/L | Log LC 50 (NCI-H322): −4.00 mol/L | Log GI 50 (SF-268): −4.95 mol/L | Log LC 50 (SF-268): −4.00 mol/L | Log GI 50 (KM-12): −4.70 mol/L | Log LC 50 (KM-12): −4.04 mol/L | Log GI 50 (OVCAR-8): −4.58 mol/L | Log LC 50 (OVCAR-8): −4.00 mol/L | Log GI 50 (RXF 393): −4.23 mol/L | Log LC 50 (RXF 393): −4.00 mol/L
